The numbers were not newly measured in patent publication US5883123A, “Butyrate prodrugs derived from lactic acid” (Vertex Pharmaceuticals, Inc., priority 1995, dated 1999), which cites them from elsewhere.

Molecules are shown by their SMILES.

Data set [1] has as its system leukemia patients.
In data set [2] the test system is Cultured Erythroleukemic Cells. The note with it: in vitro.
Data set [3] relates to tumor. The note with it: mice.

On to `CCCC(=O)O` [butyric acid], for which the “effects in leukemia patients, by inducing cell differentiation” value in data set [1] was “promising effects in leukemia patients”. Also, the cell differentiation entry in data set [2] was “induces cell differentiation in vitro”.

Turning to `CCCC(=O)O` [arginine butyrate], the “anti-tumor and anti-leukemia effects” value in data set [3] is “anti-tumor and anti-leukemia effects in mice”.
